The values that follow come from US12435037B2, “Acetylsalicylic acid derivative and application thereof” (Zhejiang Hanmai Pharmaceutical Technology Co., Ltd., priority 2018, dated 2025).

The nature of data set [1]: Plasma metabolic stability test in 10% monkey plasma diluent. As to conditions: 37° C.
Data set [2] can be described thus: Metabolism in 10% diluted plasma, mouse. The conditions noted are these: 10% diluted mouse plasma.
Data set [3] in a line: Metabolism in 10% diluted plasma, rat. As to conditions: 10% diluted rat plasma.
The nature of a further data set: in vitro. As to conditions: monkey, 10% monkey plasma diluent.
For data set [4], the system named is monkey platelet aggregation. As to the kind of experiment: Inhibitory effect on monkey platelet aggregation after transdermal administration. It counts as in vivo. The conditions noted are these: cynomolgus monkeys, transdermal daily for four weeks (70 mg/kg; comparator 60 mg/kg), inducer 1 mM arachidonic acid. The method, then: The dose volume for a monkey was calculated based on its weight. The hair on the monkey's back was shaved, and the drug was evenly applied to the bare skin. The drug was administered continuously every day for four weeks. Blank blood was collected before administration, and blood was collected once a week after administration to detect the platelet aggregation ability (the inducer was 1 mM arachidonic acid).

As for `CCN(CC)CCOC(=O)c1ccccc1OC(C)=O.Cl`, the “concentration of the parent drug” value is 3.09 µg/mL in data set [1] (10 min) and “undetectable” in data set [1] (30 min). Also, the “Highest acetylsalicylic acid concentration in plasma” value in data set [2] and in data set [3] was “BLOQ” each time. In “in vitro”, this compound came in with a C0 at 0 min, 1 μM/mL of 262 µg/mL. In addition, in data set [4], the “inhibitory effect on platelet aggregation” value was “cannot inhibit platelet aggregation effectively”. The platelet aggregation rate entry in data set [4] is “about 50%”.
